Where “and” joins values, the source holds several entries; their conditions need not be identical. Identical values can stand only once. Like-named read-outs stand apart in the source and are kept apart here.
What was measured:
[1] = test system: dentate gyrus granule cells (DGGCs); experiment: Tonic inhibition (holding current, RMS noise) in dentate gyrus granule cells of acute hippocampal slices; assay type: cell-based, mouse
Method: (§1) Acute transverse brain slices were prepared from adult (P115–125) male C57BL/6J mice in accordance with the UK Animals (Scientific Procedures) Act 1986.
(§2) The brain was rapidly removed after terminal anaesthesia with isoflurane and immersed in ice-cold slicing solution composed of (mM): 85 NaCl, 2.5 KCl, 1 CaCl2, 4 MgCl2, 1.25 NaH2PO4, 26 NaHCO3, 75 sucrose, and 25 glucose, 2 kynurenic acid, pH – 7.4. The slicing solution was continuously bubbled with 95% […] and 5% CO2. Transverse 250 μm slices containing the ventral hippocampus were cut with a Leica VT1200S vibroslicer. The slicing solution was exchanged at 37 °C for 60 min with a recording solution containing (mM): 125 NaCl, 2.5 KCl, 2 CaCl2, 1 MgCl2, 1.25 NaH2PO4, 26 NaHCO3, 2 kynurenic acid, and 25 glucose, pH 7.4.
For tonic inhibition, to determine the average holding currents, a 60 s continuous current recording was sampled every 1 s, discarding epochs that coincided with IPSCs. Any effect of drugs on the holding current was defined by subtracting the average holding currents in control and during drug application.
The baseline noise (RMS) was calculated before and during drug treatment. This was estimated from a continuous (30 s) current recording, sampled every 100 ms. The median current was calculated every 5 s and values more than twice the standard deviation from the median (usually due to IPSCs) were eliminated. Baseline GABA-mediated current noise was defined by subtracting RMS values before and after drugs, e.g., α-Bgtx or bicuculline.

[2] = test system: GABAARs expressed in HEK293 cells; assay type: cell-based, murine
[3] = test system: native hippocampal GABAARs; assay type: cell-based, rat
Method: Dissociated hippocampal neurons were prepared from embryonic day 18 rat pups as described ([Hannan et al., 2012]). Briefly, hippocampi were dissected in ice-cold Hank's Balanced Salt Solution (HBSS) (Ca^2+/Mg^2+ free) before enzymatic dissociation in 0.1% (w/v) trypsin at 37 °C for 10 min followed by serial washes in pre-warmed HBSS to remove trypsin prior to trituration. Cells were mechanically dissociated using fire-polished glass Pasteur pipettes in plating medium composed of minimal essential medium (MEM) supplemented with 5% (v/v) fetal calf serum (FCS), 5% (v/v) horse serum, penicillin-G and streptomycin (200 units/ml and 200 μg/ml), 2 mM L-glutamine and 35 mM glucose. Cells were plated at a density of 10^6 per ml in plating medium on glass cover-slips previously coated with poly-D-lysine. The neurons were grown and maintained at 37 °C in a humidified 95% air/5% CO2 atmosphere.
After plating (30 min), the medium was removed and replaced with maintenance medium composed of Neurobasal-A supplemented with 1% (v/v) B-27, penicillin-G and streptomycin (100 units/ml and 100 μg/ml), 0.5% (v/v) Glutamax and 35 mM glucose.
(§3) Patch electrodes had resistances of 4–5 MΩ and were filled with an internal solution containing (mM): 120 CsCl 1 MgCl2, 11 EGTA, 30 KOH, 10 HEPES, 1 CaCl2, and 2 K2ATP; pH – 7.2. HEK-293 cells were superfused with a saline solution containing (mM): 140 NaCl, 4.7 KCl, 1.2 MgCl2, 2.52 CaCl2, 11 Glucose, and 5 HEPES; pH 7.4. The saline for recording from primary neurons was supplemented with 2 mM kynurenic acid and pH adjusted to 7.4 to block all spontaneous excitatory post-synaptic currents (EPSCs). Membrane currents were filtered at 5 kHz (−3 dB, 6th pole Bessel, 36 dB/octave). HEK-293 cells were studied 48 h after transfection by voltage clamping cells at a holding potential of −20 to −40 mV with optimised series resistance (Rs, <10 MΩ) and whole-cell membrane capacitance compensation. Neuronal membrane currents were similarly recorded at a holding potential of −60 mV.
(§4) Spontaneous inhibitory postsynaptic currents (IPSCs) were recorded from dentate gyrus granule cells (DGGCs) with the same internal solution as above. Cells were voltage clamped at −60 mV and IPSCs were recorded using 5 kHz filtering with optimal series resistance and whole-cell capacitance compensation.

[4] = target: T1, α5β2γ2 GABAAR (Mus musculus, UniProt P22723+P63137+Q8BHJ7); experiment: Whole-cell GABA-activated currents in transfected HEK-293 cells (patch clamp); assay type: cell-based, murine
T1 construct: expressed in transfected cells; host or cells: HEK-293
T1 sequence (P22723 39-474): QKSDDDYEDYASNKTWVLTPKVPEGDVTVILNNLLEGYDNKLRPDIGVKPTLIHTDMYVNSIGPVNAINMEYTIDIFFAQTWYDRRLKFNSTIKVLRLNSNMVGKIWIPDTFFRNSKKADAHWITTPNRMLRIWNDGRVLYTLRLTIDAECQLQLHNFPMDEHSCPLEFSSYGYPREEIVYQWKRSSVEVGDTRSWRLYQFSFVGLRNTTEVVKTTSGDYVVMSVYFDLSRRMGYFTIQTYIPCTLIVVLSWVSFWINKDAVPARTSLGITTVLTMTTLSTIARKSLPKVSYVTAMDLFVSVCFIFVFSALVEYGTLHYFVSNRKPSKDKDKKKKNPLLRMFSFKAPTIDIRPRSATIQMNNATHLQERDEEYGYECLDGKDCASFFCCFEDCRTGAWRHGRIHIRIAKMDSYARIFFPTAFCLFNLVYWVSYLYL
T1 sequence (Q8BHJ7 32-463): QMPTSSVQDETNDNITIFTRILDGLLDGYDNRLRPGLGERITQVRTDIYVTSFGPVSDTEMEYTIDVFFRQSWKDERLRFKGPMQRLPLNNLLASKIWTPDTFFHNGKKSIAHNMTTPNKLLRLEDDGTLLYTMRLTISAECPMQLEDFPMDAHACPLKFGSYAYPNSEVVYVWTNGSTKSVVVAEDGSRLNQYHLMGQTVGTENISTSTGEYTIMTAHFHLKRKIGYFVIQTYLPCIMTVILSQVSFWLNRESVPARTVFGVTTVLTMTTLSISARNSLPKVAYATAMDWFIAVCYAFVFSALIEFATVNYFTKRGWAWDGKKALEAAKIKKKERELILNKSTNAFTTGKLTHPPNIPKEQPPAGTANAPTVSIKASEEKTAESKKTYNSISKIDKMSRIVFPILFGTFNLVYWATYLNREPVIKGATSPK
T1 sequence (P63137 25-512): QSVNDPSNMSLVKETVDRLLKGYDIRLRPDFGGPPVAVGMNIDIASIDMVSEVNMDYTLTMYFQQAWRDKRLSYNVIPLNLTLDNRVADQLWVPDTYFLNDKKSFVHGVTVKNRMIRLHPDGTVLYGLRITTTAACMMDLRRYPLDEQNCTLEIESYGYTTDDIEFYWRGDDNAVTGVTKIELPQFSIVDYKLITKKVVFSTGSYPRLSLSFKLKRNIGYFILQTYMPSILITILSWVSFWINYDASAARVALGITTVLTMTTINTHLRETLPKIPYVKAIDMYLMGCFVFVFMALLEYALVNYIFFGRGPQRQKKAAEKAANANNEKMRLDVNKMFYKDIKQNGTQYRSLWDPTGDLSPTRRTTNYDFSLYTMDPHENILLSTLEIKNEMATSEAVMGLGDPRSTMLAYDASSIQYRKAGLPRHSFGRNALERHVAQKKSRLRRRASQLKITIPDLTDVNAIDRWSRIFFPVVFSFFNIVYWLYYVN
Method: (§5) Murine GABAAR α1-6, β1-3, γ2 and δ cDNAs subcloned into pRK-5 and pEGFP-C1 have been described previously ([Mortensen et al., 2011]).
(§6) Cells were transfected with equimolar ratios of cDNAs encoding for α1–6, β1–3 and δ or γ2 GABAA receptor subunits along with eGFP using a calcium phosphate method ([Mortensen et al., 2011]) 15–45 min after plating.
as §3, §4

[5] = target: T2, α1β2γ2 GABAAR (Mus musculus, UniProt P22723+P62812+P63137); experiment: as above; assay type: cell-based, murine
T2 construct: expressed in transfected cells; host or cells: HEK-293
T2 sequence (P63137 25-512): as above
T2 sequence (P22723 39-474): as the sequence (P22723 39-474) above
T2 sequence (P62812 28-455): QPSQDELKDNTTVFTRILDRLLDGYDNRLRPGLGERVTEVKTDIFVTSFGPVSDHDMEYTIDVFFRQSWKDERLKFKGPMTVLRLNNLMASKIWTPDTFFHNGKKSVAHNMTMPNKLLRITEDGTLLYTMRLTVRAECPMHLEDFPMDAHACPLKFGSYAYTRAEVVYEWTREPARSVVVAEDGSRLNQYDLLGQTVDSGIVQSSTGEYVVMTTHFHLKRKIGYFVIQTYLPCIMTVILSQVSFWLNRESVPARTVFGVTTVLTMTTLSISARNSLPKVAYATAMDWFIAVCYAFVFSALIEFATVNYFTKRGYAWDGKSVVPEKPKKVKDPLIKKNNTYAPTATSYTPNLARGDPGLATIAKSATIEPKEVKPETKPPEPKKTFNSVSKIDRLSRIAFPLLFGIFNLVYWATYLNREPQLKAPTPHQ
Method: as §5, §6, §3, §4

[6] = target: T3, α4β2δ receptors (Mus musculus, UniProt P22933+P63137+Q9D6F4); experiment: Whole-cell GABA-activated and leak currents in transfected HEK-293 cells (patch clamp); assay type: cell-based, murine
T3 construct: expressed in transfected cells; host or cells: HEK-293
T3 sequence (P22933 17-449): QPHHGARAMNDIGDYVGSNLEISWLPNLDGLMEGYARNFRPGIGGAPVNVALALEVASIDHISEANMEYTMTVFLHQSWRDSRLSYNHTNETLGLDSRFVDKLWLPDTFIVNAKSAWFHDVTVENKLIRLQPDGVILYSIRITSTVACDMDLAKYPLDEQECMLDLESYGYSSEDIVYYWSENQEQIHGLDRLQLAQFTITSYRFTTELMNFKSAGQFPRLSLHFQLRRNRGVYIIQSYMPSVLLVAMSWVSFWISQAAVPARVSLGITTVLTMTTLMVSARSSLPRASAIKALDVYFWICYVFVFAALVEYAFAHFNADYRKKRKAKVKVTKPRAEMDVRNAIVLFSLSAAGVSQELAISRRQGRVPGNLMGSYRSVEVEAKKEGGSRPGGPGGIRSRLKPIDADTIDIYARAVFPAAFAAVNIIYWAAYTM
T3 sequence (P63137 25-512): as the sequence (P63137 25-512) above
T3 sequence (Q9D6F4 36-552): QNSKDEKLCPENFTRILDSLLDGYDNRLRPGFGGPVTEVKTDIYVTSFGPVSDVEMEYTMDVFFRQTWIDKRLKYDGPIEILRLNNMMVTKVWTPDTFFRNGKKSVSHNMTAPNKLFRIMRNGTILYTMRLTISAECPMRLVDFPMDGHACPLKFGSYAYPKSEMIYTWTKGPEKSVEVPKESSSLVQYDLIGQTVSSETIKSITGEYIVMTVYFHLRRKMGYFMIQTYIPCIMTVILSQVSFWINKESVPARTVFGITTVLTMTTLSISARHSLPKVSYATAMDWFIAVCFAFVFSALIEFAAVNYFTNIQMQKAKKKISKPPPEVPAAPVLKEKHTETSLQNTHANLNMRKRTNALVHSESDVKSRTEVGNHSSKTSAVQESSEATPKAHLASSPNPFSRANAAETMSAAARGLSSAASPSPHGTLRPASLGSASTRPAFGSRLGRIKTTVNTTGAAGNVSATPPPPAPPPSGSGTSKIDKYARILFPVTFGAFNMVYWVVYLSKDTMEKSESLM
Method: as §5, §6, §3, §4

[7] = target: T4, α4β2γ2 GABAAR (Mus musculus, UniProt P22723+P63137+Q9D6F4); assay type: cell-based, murine
T4 construct: expressed in transfected cells; host or cells: HEK-293
T4 sequence (P63137 25-512): as the sequence (P63137 25-512) above
T4 sequence (P22723 39-474): as the sequence (P22723 39-474) above
T4 sequence (Q9D6F4 36-552): as the sequence (Q9D6F4 36-552) above
Method: as §5, §6
as §3, with “HEK-293 cells were studied 48 h after transfection by voltage clamping cells at a holding potential of −20 to −40 mV with optimised series resistance (Rs, <10 MΩ) and whole-cell membrane capacitance compensation.” left out
as §4

[8] = test system: dentate gyrus granule cells (DGGCs); experiment: Spontaneous IPSCs in dentate gyrus granule cells of acute hippocampal slices; assay type: cell-based, mouse
Method: as §1, §2, §4
IPSCs were detected and analysed using WinEDR and WinWCP (John Dempster, University of Strathclyde, UK). IPSC frequency was calculated using events detected over 60 s epochs of recording. […] This function provided the Gaussian mean amplitude current (μ) and standard deviation (σ). All the distributions were fitted using this function in Origin (Ver 6). The accuracy of the fits was checked by repeating the iterative non-linear fitting procedure after substituting the best-fit parameters obtained for the control and α-Bgtx datasets with new values.

[9] = target: T5, α2β2 receptors (Mus musculus, UniProt P26048+P63137); experiment: Whole-cell GABA-activated currents in transfected HEK-293 cells (patch clamp); assay type: cell-based, murine
T5 construct: expressed in transfected cells; host or cells: HEK-293
T5 sequence (P26048 29-451): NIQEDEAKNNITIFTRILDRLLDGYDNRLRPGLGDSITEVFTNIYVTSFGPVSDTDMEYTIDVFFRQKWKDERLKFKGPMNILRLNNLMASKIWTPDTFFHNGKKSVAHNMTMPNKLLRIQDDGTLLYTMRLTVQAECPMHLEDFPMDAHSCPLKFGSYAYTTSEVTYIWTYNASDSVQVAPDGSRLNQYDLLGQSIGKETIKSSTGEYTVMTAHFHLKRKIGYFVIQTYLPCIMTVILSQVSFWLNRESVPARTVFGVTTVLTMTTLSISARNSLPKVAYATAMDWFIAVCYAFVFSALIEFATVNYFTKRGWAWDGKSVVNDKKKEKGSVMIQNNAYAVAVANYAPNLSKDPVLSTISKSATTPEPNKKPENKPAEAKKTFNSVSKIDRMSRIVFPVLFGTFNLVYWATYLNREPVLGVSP
T5 sequence (P63137 25-512): as the sequence (P63137 25-512) above
Method: as §5, §6
as §3, with “Whole-cell GABA-activated currents were recorded from transfected HEK-293 cells or hippocampal neurons in culture at 12–14 DIV using patch clamp electrophysiology. Patch” for “Patch”

[10] = target: T6, α2β2γ2 GABAAR (Mus musculus, UniProt P22723+P26048+P63137); experiment: as above; assay type: cell-based, murine
T6 construct: expressed in transfected cells; host or cells: HEK-293
T6 sequence (P63137 25-512): as above
T6 sequence (P26048 29-451): as the sequence (P26048 29-451) above
T6 sequence (P22723 39-474): as the sequence (P22723 39-474) above
Method: as §5, §6, §3, §4

[11] = target: T7, α2β2γ2 GABAARs (Mus musculus, UniProt P22723+P26048+P63137); assay type: binding, murine
T7 construct: expressed in transfected cells; host or cells: HEK-293
T7 sequence (P26048 29-451): as the sequence (P26048 29-451) above
T7 sequence (P63137 25-512): as the sequence (P63137 25-512) above
T7 sequence (P22723 39-474): as the sequence (P22723 39-474) above
Method: as §5, §6
Live transfected HEK-293 cells were studied 48 h after transfection and washed with Krebs to remove cell culture media and incubated in 400 nM α-Bgtx coupled with Alexa Fluor 555 (α-Bgtx-AF555; Life Technologies) for 10 min at room temperature (RT). Cells were washed and fixed in 4% paraformaldehyde (PFA; Sigma) for 10 min at RT. The cells were imaged immediately post-fixation in saline using a Zeiss LSM 510 Meta confocal microscope and an Achroplan x40 water DIC objective (NA 0.8) as described previously ([Hannan et al., 2012]). This involved choosing the optimal z-section and acquiring images as a mean of 4 scans in 16-bits using a 543 nm Helium–Neon laser and a 560 nm long-pass filter for α-Bgtx-AF555 and a 488 Argon laser with a 505–530 nm band-pass filter for eGFP.
Confocal images were analysed using ImageJ (version 1.410) as described previously ([Hannan et al., 2013]). For each cell the surface membrane was identified by drawing a region-of-interest (ROI) in the eGFP channel and this was transferred to the α-Bgtx-AF555 channel and the mean membrane fluorescence values were determined. Mean background fluorescence was determined from a region devoid of cells. This was subtracted from the mean membrane fluorescence providing a mean corrected fluorescence intensity value. These values, for different combinations of receptors and drugs, were graphically plotted using Origin.
To identify the location of the α-Bgtx binding site on GABAARs, we pre-incubated HEK-293 cells expressing α2β2γ2 with a range of ligands that act at GABAARs and nAChRs, for 5 min at RT followed by co-incubation with α-Bgtx-AF555 for 10 min at RT (Fig. 4A). These ligands were selected to ‘protect by binding occupancy’ known binding site domains on GABAARs and nAChRs.
A, Schematic of the experimental protocol. 48 hrs after transfection, HEK-293 cells expressing eGFP and α2β2γ2 were incubated in drug for 5 min at RT followed by the addition of drug +400 nM α-Bgtx-AF555 for 10 min at RT to label cell surface receptors. The cells were washed to remove the excess α-Bgtx-AF555, fixed and imaged. B, Images of cells expressing α2β2γ2, stained with α-Bgtx-AF555 in the presence of 1 mM d-Tc, 1 mM nicotine, or 1 mM carbachol. C, Mean cell surface fluorescence of α-Bgtx-AF555 bound to surface GABAARs in the presence of d-Tc, nicotine or carbachol. […] Scale bars 5 μm.

[12] = 1 mM ligand, 5 min pre-incubation then + 400 nM α-Bgtx-AF555 10 min, n = 7, Fig. 4B–C

CN1CCc2cc3c(cc2[C@H]1[C@@H]1OC(=O)c2c1ccc1c2OCO1)OCO3 [bicuculline]
RMS noise ([1]; 50 μM bicuculline applied after α-Bgtx, n = 6, P < 0.05): 2.74 ± 0.34 pA
average tonic current revealed (change in holding current) ([1]; 50 μM bicuculline, n = 7): 9.31 ± 2.52 pA

α-bungarotoxin [α-Bgtx]
reduction of saturating GABA currents [2]: 13.0 ± 5.9%
inhibition of GABA currents [3]: 33 ± 9%
reversibility of inhibition [3]: reversible
RMS noise [1]: 3.39 ± 0.59 pA
change in DGGC holding current [1]: 1.27 ± 1.21 pA
inhibition of submaximal GABA currents [4]: 15.3 ± 5.9%
inhibition of submaximal GABA currents [5]: 23.8 ± 3%
potentiation of submaximal GABA responses [6]: 46 ± 5% and 40 ± 6%
reduction in leak current in HEK-293 cells expressing α4β2δ relative to reduction of the leak in DGGCs [6]: over 40 fold
reduction of leak current [6]: 56 ± 3.7 pA and 75 ± 13 pA
inhibition of submaximal GABA currents [7]: 41.3 ± 4.4%
IPSC amplitude distribution, Gaussian peak 1 mean [8]: −13.66 pA
IPSC amplitude distribution, Gaussian peak 2 mean [8]: −19.01 pA
frequency of IPSCs [8]: 2.17 ± 0.34 Hz
median IPSC amplitude [8]: −23.19 pA

[Zn+2] [Zn^2+]
inhibition of submaximal GABA currents by Zn^2+ [9]: 90.8 ± 4.44%
inhibition of submaximal GABA currents by Zn^2+ [10]: 37.4 ± 8.9%

COc1cc2c3cc1Oc1cc(ccc1O)C[C@@H]1c4c(cc(OC)c(O)c4Oc4ccc(cc4)C[C@@H]3N(C)CC2)CC[N+]1(C)C [d-Tc, d-tubocurarine]
inhibition of whole-cell GABA-activated currents [3]: 92 ± 4 % inhibition
α-Bgtx-AF555 binding in presence of ligand ([11]; 1 mM d-Tc, n = 6, Fig. 4D–E): 7.1 ± 1.9 % of control
α-Bgtx-AF555 binding in presence of ligand [11, 12]: 1.8 ± 1.3 % of control

Oc1noc2c1CCNC2 [THIP]
response compared with maximal GABA (1 mM) ([6]; 300 μM THIP): superagonist ability

CCN1C[C@]2(COC(=O)c3ccccc3N3C(=O)C[C@H](C)C3=O)CC[C@H](OC)[C@@]34[C@@H]5C[C@H]6[C@H](OC)[C@@H]5[C@](O)(C[C@@H]6OC)[C@@](O)([C@@H](OC)[C@H]23)[C@@H]14 [MLA, methyllaconitine]
effect on currents activated by sub-maximal GABA [3]: < 1 % of control
inhibition of GABA-activated currents ([3]; 10 μM GABA, 1 nM MLA, 1 min pre-incubation then co-applied, n = 6, P > 0.05): 0.8 ± 1.7 % inhibition
DGGC holding current ([1]; 1 nM MLA): slightly reduced
effect on amplitude of GABA-activated currents ([10]; 1 nM MLA pre-applied 1 min before co-application with GABA): did not affect the amplitude
frequency of IPSCs ([8]; 1 nM MLA, n = 5, control 4.12 ± 0.9 Hz, P > 0.05): 3.75 ± 1.2 Hz
median IPSC amplitude ([8]; 1 nM MLA, n = 6098 events, control −30.82 pA, P > 0.05): −30.21 pA

picrotoxin
α-Bgtx-AF555 binding in presence of ligand [11]: 106.7 ± 14.9 % of control

CCCC(C)C1(CC)C(=O)NC(=O)NC1=O (centres unmarked) [pentobarbital]
modulation of 1 μM GABA currents ([3]; 20 μM pentobarbital): potentiated

NCCCC(=O)O [GABA, γ-aminobutyric acid]
α-Bgtx-AF555 binding in presence of ligand [11]: 34.9 ± 7.1 % of control
EC50 ([4]; n = 5): 2440 nM

CN1CCC[C@H]1c1cccnc1 [nicotine]
α-Bgtx-AF555 binding in presence of ligand [11]: 90.5 ± 11.4 % of control

C[N+](C)(C)CCOC(N)=O [carbachol]
α-Bgtx-AF555 binding in presence of ligand [11, 12]: 100.5 ± 11.3 % of control

From PMC4398322, “Snake neurotoxin α-bungarotoxin is an antagonist at native GABAA receptors” (Neuropharmacology, 2015)
